Test results: patent US6635242B2, “Broad spectrum microbicidal and spermicidal compositions, devices, and methods” (The Pennsylvania State University, priority 1998, dated 2003)

Experiments:
BPV-1 = BPV-1 focus assay in C127 mouse cells; type: cell-based, bovine papillomavirus; details: bovine papillomavirus
Procedure: Cell-free stocks of BPV-1 were prepared by extraction (10% w/v) of epidermal bovine warts in phosphate buffered saline (PBS). In order to detect the transforming ability of BPV-1, C127 mouse cells were seeded (3×10^5 cells per flask) into T-25^2 flasks. After 24 hr of growth, subconfluent cells were infected with BPV-1. For the positive controls, stock virus (20 μl) was diluted (1:1) with PBS, incubated at 37° C. for 10 min, diluted […] and then added (100 μl ) into the 5 ml of cell culture medium present on the cells. Cells were refed at 24 hours and subsequently 2 times weekly. The presence of morphologically transformed foci was counted after 2 weeks and then again at 3 weeks.
Virus inactivations were carried out in vitro by addition of concentrated SDS solutions to the virus stocks (20 μl of virus plus 20 μl of detergent) and subsequent incubation at 37° C. for 10 or 30 min as indicated. Following inactivation, virus was diluted 1000 fold to lower the detergent concentration and the preparations were immediately used for infection as above.
Although SDS could effectively reduce HSV-2 infectivity, it remained possible that this destruction was mediated by envelope removal. Because papillomaviruses are non-enveloped, the possibility remained that SDS would fail to inactivate these viruses. We utilized BPV-1 as a prototype PV because of its ability to rapidly (within 2 weeks) form multi-layered transformed foci in mouse fibroblasts in an in vitro assay. Table 3 describes results of two separate experiments in which stocks of BPV-1 were incubated at 37° C. with various concentrations of SDS (5% to 5×10^−4%) for either 10 or 30 minutes, diluted to lower the SDS concentration (to avoid cell toxicity) and then used to infect C127 cells. […] Table 4 lists several other commercially available detergents that were tested for possible inactivation of BPV-1. None of these detergents inactivated the morphologic transforming properties of the BPV-1.

[1] = test system: lymphocyte-, macrophage- and dual-tropic strains of HIV-1 (IIIB, BaL, 89.6); test: Cell-free HIV-1 inactivation (FIG. 5); type: cell-based, human immunodeficiency virus; details: HCLB or P4-R5 indicator cells
Procedure: Cell-free HIV-1 strain IIIB (A) was treated with N-9, C31G, or SDS, and used to infect HCLB cells. Cell-free HIV-1 strains BaL (M tropic) (B) and 89.6 (dual tropic) (C) were treated with N-9, C31G or SDS,and used to infect P4-R5 cells. Assays were conducted. Infectivity following exposure is expressed as a percentage relative to the number of β-gal-positive cells in duplicate wells infected with virus incubated in the absence of a microbicidal compound. Results shown in FIG. 5 are the average cell counts for a total of four wells per concentration in two independent experiments.

CRPV = type: in vivo, cottontail rabbit papillomavirus; details: 10^−2 dilution of CRPV stock, 0.05% N-9, 37° C. 10 min; 10 sites each, 3-6 weeks
[2] = test system: HIV-1-infected SupT1 cells; test: Cell-associated HIV-1 infectivity (FIG. 6); type: cell-based, human immunodeficiency virus; details: 10 min at 37° C., co-culture with HCLB cells, FIG. 6(a)
Procedure: (A) SupT1 T lymphocytes (8×10^4)infected 5 days prior with HIV-1 strain IIIB were pelleted and resuspended in new media to remove cell-free virus. After exposure to selected concentrations of each microbicide for 10 min at 37° C., the cells were diluted 1:10 and co-cultured with HCLB cells for 2 h. Following one wash with PBS to remove the infected lymphocytes, the indicator cells were cultured and assayed. Infectivity following exposure is expressed as a percentage relative to the number of β-gal-positive cells in duplicate wells infected with HIV-1 infected SupT1 cells incubated in the absence of a microbicidal compound. Results shown in FIG. 6(a) are the average cell counts for a total of four wells per concentration in two independent experiments. (B) SupT1 T lymphocytes (8×10^4) were incubated with selected concentrations of each microbicide for 10 min at 37° C., and then diluted 1:10 with new media. Following a 2 h incubation period, the cells were assessed for viability. Cell survival after treatment is expressed as the fraction of viable cells relative to the number of mock-exposed cells. Results shown in FIG. 6(b) are the average of two experiments in which triplicate wells for each concentration were assayed.

Bovine sperm = Bovine sperm motility following detergent addition; type: cell-based; set-up: key to Bovine Sperm Motility Following Detergent Addition: +++: Vigorous swimming; ++/−: Many swimmers/some dead; +/−: Occasional swimmer/most dead; −: All dead
Excerpt: The following data represent an in vitro experiment to test the efficacy of SDS and other detergents as spermicidal agents. Frozen samples of bull semen were obtained, thawed and placed in a test tube. Aliquots were taken out and put in a separate test tube where they were mixed with detergent (SDS, C31G, N-9 or a mixture of SDS and N-9) to a final percent as listed in Tables 8 and 9 below. After mixing, the samples were immediately placed on a microscope slide and visually examined for sperm movement. The experiment was conducted one sample at a time so that the visual examination was conducted immediately after addition of detergent to the sample. As a result, indications in the table of complete inactivation indicate virtually instantaneous inactivation of the sperm. […] Occasional swimmers means very few, on the order of approximately 1% of the population of sperm present in the sample, indicating approximately 99% of the sperm were inactivated by the detergent.

CCCCCCCCCCCCOS(=O)(=O)[O-].[Li+] [LDS, lithium dodecyl sulfate]
anti-papillomavirus activity in the C127 focus assay (BPV-1): have anti-papillomavirus activity

CCCCCCCCCCCC(=O)O [Lauric Acid, lauric acid]
anti-papillomavirus activity in the C127 focus assay (BPV-1): have anti-papillomavirus activity

CCCCCCCCCCCC(=O)[O-].[Na+] [NA+ Lauric Acid, sodium salt of lauric acid]
anti-papillomavirus activity in the C127 focus assay (BPV-1): have anti-papillomavirus activity

Nonoxynol-9 [N-9, reference compound]
inactivation of cell-free HIV-1 strains IIIB, BaL and 89.6 (infectivity, β-gal-positive cells) [1]: inactivated | growth of papillomas (GMD) from treated versus normal CRPV (FIG. 2b) (CRPV): not a difference in the growth of the lesions | cell-associated infectivity of HIV-1-infected SupT1 cells [2]: can reduce the cell-associated infectivity | Bovine Sperm Motility Following Detergent Addition (Bovine sperm; Table 8, 0.0125% detergent): +++ | Bovine Sperm Motility Following Detergent Addition (Bovine sperm; Table 8, 0.025% detergent): − | Bovine Sperm Motility Following Detergent Addition (Bovine sperm; Table 8, 0.5% detergent): − | Bovine Sperm Motility Following Detergent Addition (Bovine sperm; Table 8, 1% detergent): − | Bovine Sperm Motility Following Detergent Addition (Bovine sperm; Table 8, 2% detergent): − | Bovine Sperm Motility Following Detergent Addition (Bovine sperm; Table 9, 0.125% detergent): +++ | Bovine Sperm Motility Following Detergent Addition (Bovine sperm; Table 9, 0.25% detergent): +++ | Bovine Sperm Motility Following Detergent Addition (Bovine sperm; Table 9, 0.5% detergent): +++ | Bovine Sperm Motility Following Detergent Addition (Bovine sperm; Table 9, 1% detergent): ++/− | Bovine Sperm Motility Following Detergent Addition (Bovine sperm; Table 9, 2% detergent): −
